Experiments:
[1] = test system: LC3B, p62, APP, Aβ1-42 in Retinoic Acid Differentiated SH-SY5Y Human Neuroblastoma Cell; assay: Western Blot of Autophagy Markers LC3B and p62; type: cell-based; details: 3-MA 5 mM together with the present invention; Aβ1-42 Oligomer 1 μM
Description: To extract the proteins, the cells were treated with RIPA Lysis Buffer (Bio-Rad), homogenized, and centrifuged (14,000 rpm, 10 minutes, 4° C.) to obtain the supernatant. 5% Stacking Gel (DW, 30% Acrylamide: Bisacrylamide, 1M Tris pH 6.8, 10% SDS, TEMED, 10% Ammonium Persulfate) and 12% Separating Gel (DW, 30% Acrylamide: Bisacrylamide, 1.5M Tris pH 8.8, 10% SDS, TEMED, 10% Ammonium Persulfate) were used for SDS-PAGE. Supernatant obtained by centrifugation was mixed with 4× Lacmmli Buffer (Bio-Rad) in 3:1 ratio and boiled at 95° C. for 10 minutes to denature the proteins. The mixture was cooled in an ice bath for 10 minutes and span down. Protein Size Marker (Bio-Rad) and each sample were added to Stacking Gel Well prepared in Mini-Protein II Dual-Slab Apparatus (Bio-Rad) and electrophoresed at 150 volt till all are precipitated to the bottom. Polyvinylidene Difluoride (PVDF) Membrane was moistened with methanol to activate and washed with Transfer Buffer (190 mM Glycine, 50 mM Tris-Base, 0.05% SDS, 20% Methanol). Whatman 3M Paper moistened with Transfer Buffer was stacked in Mini Trans-Bolt Cell (Bio-Rad) and run electricity at 200 mA for 60 minutes to deposit the membrane. After the deposition, the membrane was blocked with 5% Skim milk solution (in TBS-T: 10 mM Tris-Base pH 8.0, 150 mM NaCl, 0.1% Tween-20) on a Platform Shaker for 60 minutes. The primary antibodies were diluted in 5% Skim Milk in an optimum concentration for each, put on platform shaker at 4° C. for 16 hours. […] Finally, Membrane was added to SuperSignal™ West Femto Maximum Sensitivity Substrate (Thermo Scientific™) and expressed the color properly before the membrane was scanned using image analysis system and the amount of protein was calculated using Image J Software (NIH, USA). […]

[2] = test system: BACE-1 and Cathepsin B; details: reported in J Gerontol a Biol Sci Med Sci 2015; J Urol. 2016; cited from earlier work

Compound	APP formation and Aβ1-42 accumulation [1]	Autophagic Flux (LC3B-II/I Ratio) [1]	expression of p62 [1]	BACE-1 and Cathepsin B expression [2]
Cn1cnc(N)c2ncnc1-2 [3-MA, 3-Methyladenine]	APP formation and Aβ1-42 accumulation increased	Autophagic Flux (LC3B-II/I Ratio) increased by the present invention was reduced	expression of p62 reduced by the present invention increased	–
CCCc1nn(C)c2c(=O)[nH]c(-c3cc(S(=O)(=O)N4CCN(C)CC4)ccc3OCC)nc12 [Sildenafil]	–	–	–	suppressed BACE-1 and Cathepsin B expression
